From patent US20230091966A1, “METHODS FOR THE TREATMENT OF CARDIOVASCULAR DISEASE WITH CYCLODEXTRINS” (Beren Therapeutics, P.B.C., priority 2020, published 2023)

Legend:
[1] = human subject, single-ascending IV doses 500-1,000 mg/kg every 4 weeks; plasma pre-dose vs post-dose; FIG. 3A
Protocol: A human subject was treated with 2-hydroxypropyl-beta-cyclodextrin with single-ascending doses administered intravenously every 4 weeks according to Table 1 below. For each dose, whole blood was collected pre-dose, post-dose (line flush), 1 hour post-dose, and 24 hours post-dose. Plasma was separated from the whole blood and subjected to a cholesterol crystal dissolution capacity (CCDC) assay using techniques similar to those described in the literature. The CCDC assay measures the ability of a sample to dissolve cholesterol crystals.

[2] = pre-dose blood plasma incubated ex vivo with the substance; FIG. 3B
Protocol: For each dose, whole blood was collected pre-dose, post-dose (line flush), 1 hour post-dose, and 24 hours post-dose. Plasma was separated from the whole blood and subjected to a cholesterol crystal dissolution capacity (CCDC) assay using techniques similar to those described in the literature. The CCDC assay measures the ability of a sample to dissolve cholesterol crystals. Blood plasma pre-dose was also incubated ex vivo with 2-hydroxypropyl-beta-cyclodextrin and the ability of the plasma to dissolve cholesterol crystals was measured.

[3] = test system: 24S-hydroxycholesterol and 27-hydroxycholesterol; settings: human subject, IV 500-1,000 mg/kg every 4 weeks; FIGS. 4A-4C
Protocol: A human subject was treated with 2-hydroxypropyl-beta-cyclodextrin with single-ascending doses administered intravenously every 4 weeks according to Table 1 below.
In this Example, a human subject was treated with 2-hydroxypropyl-beta-cyclodextrin as in Example 2, and plasma levels of 24S-hydroxycholesterol and 27-hydroxycholesterol were measured.

ABCG1 = settings: human subject, IV 500-1,000 mg/kg every 4 weeks; FIGS. 5A-5D
Protocol: (§1) A human subject was treated with 2-hydroxypropyl-beta-cyclodextrin with single-ascending doses administered intravenously every 4 weeks according to Table 1 below. In this Example, a human subject was treated with 2-hydroxypropyl-beta-cyclodextrin as in Example 2, and ABCA1 and ABCG1 mRNA levels were measured. […] ABCA1 and ABCG1 are major cellular transporters resulting in cholesterol efflux to […] or mature HDL particles. In cardiovascular disease, expression of ABC transporters correlates with plaque stability and morbidity.

ABCA1 = settings: human subject, IV 500-1,000 mg/kg every 4 weeks; FIGS. 5A-5D
Protocol: as §1

2-hydroxypropyl-beta-cyclodextrin
capability of blood plasma to dissolve cholesterol crystals (CCDC) [1]: increased capability of blood plasma to dissolve cholesterol crystals | capacity of plasma to dissolve cholesterol crystals (CCDC) [2]: increased capacity to dissolve cholesterol crystals | plasma level of 24S-hydroxycholesterol [3]: increased plasma levels | plasma level of 27-hydroxycholesterol [3]: increased plasma levels | total cholesterol levels [3]: remained stable | ABCG1 mRNA levels (ABCG1): increased mRNA levels | ABCA1 mRNA levels (ABCA1): increased mRNA levels
